The values below come from article PMC9027131, “Dual PI3K/Akt Inhibitors Bearing Coumarin-Thiazolidine Pharmacophores as Potential Apoptosis Inducers in MCF-7 Cells” (Pharmaceuticals, 2022).

One assay deals with T1, Akt-1 (Homo sapiens, UniProt P31749).
T1 construct: purchased Abcam ab139436
Put plainly: Akt Kinase Activity assay kit. Type of assay: biochemical. Conditions: means ± sd, n = 3; read-out: IC50 (µM) Akt-1 Isoform. The text has this: (§1) Accumulating evidence highlighted that PI3K signaling pathway upregulation is highly implicated in breast cancer development and disease progression as well as resistance to hormones and cytotoxic therapy. Therefore, it is essential to elucidate the effect of the novel compound, VIIb, on the PI3K/Akt signaling pathway by using in vitro PI3K class 1A enzyme inhibition assay conducted on PI3K-α and PI3K-γ isoforms as well as an Akt-1 enzyme inhibition assay. […] Furthermore, targeting the PI3K-γ isoform in breast cancer could contribute to enhancing the anti-tumor immunity.
The in vitro inhibition of PI3K and Akt kinase activities by VIIb was assessed using a PI3Kα (p110α/p85) assay kit (Catalog #79781; BPS Bioscience, Inc, San Diego, CA, USA), PI3Kγ (p110γ/PIK3R5) assay kit (Catalog #79803; BPS Bioscience, Inc, San Diego, CA, USA), and Akt Kinase Activity assay kit (ab139436; Abcam, Cambridge, UK) following the manufacturer’s instructions as described previously. The results were expressed as IC50 values using dose–response curves and linear regression equations. LY294002 compound was taken as the reference compound. The values were means ± sd; n = 3.

For a further assay, the system named is caspase-9. As to the kind of experiment: Cleaved caspase-9 level by ELISA in MCF-7 cells. Type of assay: cell-based, human. As to conditions: MCF-7, 48 h; control 2.712 ± 0.09; means ± sd, n = 3. The procedure:
Apoptosis is a programmed cell death modality that includes an array of steps such as activation of caspases alongside endonucleases leading to DNA cleavage, eventually causing the formation of apoptotic bodies. Caspases are classified into effector caspases, such as caspase-3, -6, and -7, and initiator caspases, including either caspase-2, -8, and -10 (extrinsic pathway) or caspase-9 (intrinsic pathway).
The level of cleaved caspase-9 was assessed in both untreated/control MCF-7 cells and following VIIb treatment using DRG® Caspase-9 (human) ELISA (EIA-4860), following the manufacturer’s instructions (DRG International Inc., Springfield, NJ, USA). The data were means ± sd; n = 3.

The test system of assay [1] is MCF 10 non-tumorigenic epithelial cell line. As to the kind of experiment: MTT assay in non-cancerous epithelial cells (MCF 10). Type of assay: cell-based. As for the experimental part: MCF-7 breast cancer cell line (ATCC® HTB-22™) plus non-tumorigenic epithelial cell line (MCF 10, ATCC® CRL-10317™) were supplied from VACSERA (Cairo, Egypt) and cultured in Dulbecco’s Modified Eagle Medium (Invitrogen-Life Technologies, Carlsbad, CA, USA) with 1% antibiotic solution (streptomycin–penicillin) plus 10% fetal bovine serum (Hyclone) in a 5% (v/v) humidified CO2 incubator at 37 °C.
Firstly, cells were kept in a humidified atmosphere (37 °C, 24 h), and then incubated with serial concentrations of the tested compounds. After 48 h, the medium was aspirated, and then cells were incubated with 5% MTT solution (M-5655; Sigma Aldrich, St. Louis, MO USA) (200 µL/well, 2 h), allowing the dye to metabolize into the colored insoluble formazan complex that was then dissolved in the appropriate solubilization solution (M-8910) (200 µL/well), for 30 min with gentle mixing at room temperature. The UV absorbance was measured using a microplate reader (570 nm), and cell viability was determined with respect to untreated control cells.

In the next assay the target is T2, PI3K-γ (Homo sapiens, UniProt P48736).
T2 construct: purchased BPS Bioscience, Inc 79803
Put plainly: PI3Kγ (p110γ/PIK3R5) enzyme inhibition assay kit. Type of assay: biochemical. As to conditions: means ± sd, n = 3; read-out: IC50 (µM) PI3K-γ Isoform.
Description: as §1
The in vitro inhibition of PI3K and Akt kinase activities by VIIb was assessed using a PI3Kα (p110α/p85) assay kit (Catalog #79781; BPS Bioscience, Inc, San Diego, CA, USA), PI3Kγ (p110γ/PIK3R5) assay kit (Catalog #79803; BPS Bioscience, Inc, San Diego, CA, USA), and Akt Kinase Activity assay kit (ab139436; Abcam, Cambridge, UK) following the manufacturer’s instructions as described previously. The results were expressed as IC50 values using dose–response curves and linear regression equations.

T2 sequence (P48736 whole entry): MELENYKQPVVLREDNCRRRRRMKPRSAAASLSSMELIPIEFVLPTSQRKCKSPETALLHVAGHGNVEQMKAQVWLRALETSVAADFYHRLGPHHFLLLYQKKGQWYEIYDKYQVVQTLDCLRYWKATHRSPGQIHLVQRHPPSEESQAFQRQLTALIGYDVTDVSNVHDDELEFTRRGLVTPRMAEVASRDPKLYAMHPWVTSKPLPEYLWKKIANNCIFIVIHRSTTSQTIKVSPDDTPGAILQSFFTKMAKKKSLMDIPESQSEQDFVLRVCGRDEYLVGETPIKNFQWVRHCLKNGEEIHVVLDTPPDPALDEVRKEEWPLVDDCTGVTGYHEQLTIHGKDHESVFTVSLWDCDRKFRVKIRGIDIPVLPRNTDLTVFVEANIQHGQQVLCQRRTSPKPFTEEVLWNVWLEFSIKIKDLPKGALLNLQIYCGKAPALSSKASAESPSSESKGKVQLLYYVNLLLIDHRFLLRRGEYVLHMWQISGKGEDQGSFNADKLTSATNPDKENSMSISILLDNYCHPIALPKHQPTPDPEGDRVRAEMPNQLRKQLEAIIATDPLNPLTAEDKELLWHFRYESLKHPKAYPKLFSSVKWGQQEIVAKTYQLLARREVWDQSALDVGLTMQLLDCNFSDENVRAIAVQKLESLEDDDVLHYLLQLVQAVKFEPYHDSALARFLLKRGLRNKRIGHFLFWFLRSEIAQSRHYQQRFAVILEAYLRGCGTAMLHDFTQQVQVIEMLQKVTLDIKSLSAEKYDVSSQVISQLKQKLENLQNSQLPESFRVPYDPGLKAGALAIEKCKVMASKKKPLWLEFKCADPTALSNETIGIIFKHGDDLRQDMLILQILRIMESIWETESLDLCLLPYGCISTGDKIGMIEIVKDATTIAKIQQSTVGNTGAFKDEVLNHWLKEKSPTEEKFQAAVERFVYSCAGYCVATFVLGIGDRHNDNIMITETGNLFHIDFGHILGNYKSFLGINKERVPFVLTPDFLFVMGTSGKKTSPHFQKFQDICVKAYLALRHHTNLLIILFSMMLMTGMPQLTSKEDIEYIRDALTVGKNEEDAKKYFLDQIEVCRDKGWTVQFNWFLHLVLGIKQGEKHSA
T2 sequence (Q8WYR1 whole entry partner): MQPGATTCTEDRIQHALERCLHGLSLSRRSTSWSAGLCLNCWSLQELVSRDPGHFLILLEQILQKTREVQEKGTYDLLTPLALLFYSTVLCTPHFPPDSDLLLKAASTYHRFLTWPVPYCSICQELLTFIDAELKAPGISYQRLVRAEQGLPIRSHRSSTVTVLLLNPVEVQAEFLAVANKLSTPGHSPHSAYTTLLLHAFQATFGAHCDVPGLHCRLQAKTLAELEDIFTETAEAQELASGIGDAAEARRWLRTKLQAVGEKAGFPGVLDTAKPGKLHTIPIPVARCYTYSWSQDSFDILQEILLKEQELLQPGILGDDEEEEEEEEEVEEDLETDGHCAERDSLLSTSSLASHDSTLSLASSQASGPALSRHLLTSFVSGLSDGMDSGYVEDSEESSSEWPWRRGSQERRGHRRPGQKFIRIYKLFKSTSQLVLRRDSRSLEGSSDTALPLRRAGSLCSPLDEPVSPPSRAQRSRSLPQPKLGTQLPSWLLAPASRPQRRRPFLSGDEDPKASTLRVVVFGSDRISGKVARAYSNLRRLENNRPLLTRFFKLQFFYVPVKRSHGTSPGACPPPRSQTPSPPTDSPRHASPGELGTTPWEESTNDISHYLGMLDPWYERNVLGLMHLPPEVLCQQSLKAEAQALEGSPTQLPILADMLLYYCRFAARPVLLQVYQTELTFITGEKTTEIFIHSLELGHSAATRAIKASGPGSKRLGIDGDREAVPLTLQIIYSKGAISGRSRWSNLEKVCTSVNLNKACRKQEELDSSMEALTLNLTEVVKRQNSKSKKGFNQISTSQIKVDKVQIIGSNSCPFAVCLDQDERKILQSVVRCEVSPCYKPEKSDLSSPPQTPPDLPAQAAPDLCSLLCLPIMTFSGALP
T1 sequence (P31749 whole entry, species assumed): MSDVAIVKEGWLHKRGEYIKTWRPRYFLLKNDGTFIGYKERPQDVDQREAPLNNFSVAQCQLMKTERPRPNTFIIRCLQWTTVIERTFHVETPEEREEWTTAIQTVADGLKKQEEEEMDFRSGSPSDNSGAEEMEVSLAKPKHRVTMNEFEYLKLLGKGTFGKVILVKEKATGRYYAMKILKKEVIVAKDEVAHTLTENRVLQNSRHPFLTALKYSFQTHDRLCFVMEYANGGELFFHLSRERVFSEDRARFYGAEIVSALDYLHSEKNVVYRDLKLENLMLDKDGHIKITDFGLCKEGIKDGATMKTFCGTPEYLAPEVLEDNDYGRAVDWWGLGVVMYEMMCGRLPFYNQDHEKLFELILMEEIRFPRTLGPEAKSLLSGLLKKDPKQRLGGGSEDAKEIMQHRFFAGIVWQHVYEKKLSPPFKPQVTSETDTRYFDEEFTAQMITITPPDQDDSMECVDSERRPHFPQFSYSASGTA

With `C/C(=N/N=C1/SCC(=O)N1C(=O)c1ccccc1)c1c(O)ccc2c(C)cc(=O)oc12` [VIIb], the IC50 at Akt-1 was determined as 2.93 ± 0.15 µM; in assay [1] (Homo sapiens, MCF10, MTT assay, non-cancerous epithelial cells, means ± sd, n = 3) it was 9.52 ± 0.6 µM; at PI3K-γ it was 34.7 ± 1.88 µM. Besides, the “Caspase-9 Level” value in the assay on caspase-9 is 21.61 ± 0.14 ng/mL. Also, the “Selectivity Index MCF-10/MCF-7” value in assay [1] (ratio of IC50 MCF-10 to IC50 MCF-7) is 9.24.
